According to patent publication US11116811B2, “Pharmaceutical composition comprising refined indigo naturalis extracts and the use thereof” (Galderma S.A., priority 2015, dated 2021):
Converted amounts (≈) assume the structure as drawn. Each block holds one molecule with its values, some of them ahead of it.

Columns and labels:
[1] = tested on: IL-22 induced psoriasis-like mouse models; assay: IL-22 induced psoriasis-like mouse model, ear thickness; format: in vivo, BABL/c mice; set-up: AUC of ear thickness: unit not given here
Experimental: • BABL/c mice, male, body weight 19-22 g, purchased from Shanghai SLC AnimalCenter. • Room temperature: 24±1° C. • Room relative humidity: 40-70% • Light cycle: Fluorescent light for 12-hour light (8:00-20:00) 12-hour dark • Animal hosting: 4 mice/cage • Food: Free access to food (irradiated, Shanghai SLAC Laboratory Animal Co. Ltd., China) • Water: Free access to tap water from local supply (first filtered by Molanimal ultrapure water machine from the municipal water supply) Instruments • MJ Research PTC-200 Peltier Thermal cycler (Alpha Unit™ Block Assembly for PTC DNA Engine™ systems) • Applied Biosystems 7500 realtime PCR system • Digimatic micrometer caliper: Mitutoyo, Japan. Accuracy: 0.001 mm Reagents • Recombinant mouse IL-22 (rmIL-22), Novoprotein (sinobio), Cat. C047, Lot. 0375351 • High capacity cDNA Reverse Transcription kit, Applied Biosystems, Part No.: 4368813, Lot: 0909069 • Thermo Scientific ABsolute SYBR Green Rox Mix, Thermo Scientific, Cat: AB-1163/A, Lot: 0911/16 Positive Control • Protopic® (tacrolimus, FK506), 0.1% ointment, Astellas Toyama Co., Ltd. Toyama Plant, H20100079, Lot: 028680. Dosing Regimen
Different concentrations of test samples, vehicle, or 0.1% of FK506 ointment, were topically administrated at 1% one hour after the induction of model and then given daily from day 1 to day 11, twice a day. The first day of administration of a test article was regarded as day 0.
Topical application, b.i.d.
Intradermal injection of 20 μL PBS, either alone or containing 100 or 500 ng recombinant mouse IL-22 (eBiosience), was administered into the ears of anesthetized mice using a 30-gauge needle every other day for eleven days. Ear thicknesses were measured before injection on day 0 and thereafter on days without injections. Ear measurements were taken at the center of the ears using a digimatic micrometer caliper (Mitutoyo).
Twenty-four hours after the last IL-22 treatment, mice were sacrificed, and ears were collected for further analysis.
Results of ear thickness data were expressed as mean±S. E. M. AUC of ear swelling was calculated by the ear thickness data from day 0 to day 11, and analyzed by repeated-measured ANOVA methods with IMP® software. Cytokine protein and gene expression data were evaluated with a one-way ANOVA and followed by student's t-test for post-hoc analysis. (Significance level was set at p<0.05).

NFκB = assay: TNFα-induced NFκB activation reporter assay in 293/NFκB-Luc cells; format: cell-based; conditions: Homo sapiens; TNFα-stimulated 293/NFκB-Luc, luciferase; replicate values separated by /; read-out: pro-inflammatory cytokine production IC50 (NFKB)
Experimental: Cell lysates were prepared by removing media and adding lysis buffer. 5× volume Luciferase Assay Reagent was added to each well prior to read plate. Luminescence was recorded using Perkin-Elmer Victor III plate reader (Perkin-ElmerLife Sciences, Boston, Mass., USA).
All IC50 values were determined by using Xlfit™ software (version 2.0) from ID Business Solutions (Guildford, UK). Background was defined in culture with cells treated with DMSO only and was subtracted for IC50 calculations.

[2] = study 1, IL-22 100 ng in 20 μL i.d.
[3] = study 1, IL-22 500 ng in 20 μL i.d.

Molecule: C=CC[C@@H]1/C=C(\C)C[C@H](C)C[C@H](OC)[C@H]2O[C@@](O)(C(=O)C(=O)N3CCCC[C@H]3C(=O)O[C@H](/C(C)=C/[C@@H]3CC[C@@H](O)[C@H](OC)C3)[C@H](C)[C@@H](O)CC1=O)[C@H](C)C[C@@H]2OC [FK506, tacrolimus]
AUC of ear thickness ([1]; study 2, 0.1% topical b.i.d.): 403 | ear thickness on day 11 ([1]; study 2, 0.1% topical b.i.d.): 256.8 ± 3.5 μm | inhibition of AUC of ear thickness ([1]; study 2, 0.1% topical b.i.d.): 79.2% | AUC of ear thickness ([1]; study 3, 0.1% topical b.i.d.): 369 | ear thickness on day 11 ([1]; study 3, 0.1% topical b.i.d.): 278.8 ± 5.0 μm | inhibition of AUC of ear thickness ([1]; study 3, 0.1% topical b.i.d.): 81.3% | AUC of ear thickness ([1]; study 4, 0.1% topical b.i.d.): 446 | ear thickness on day 11 ([1]; study 4, 0.1% topical b.i.d.): 260.4 ± 4.5 μm | inhibition of AUC of ear thickness ([1]; study 4, 0.1% topical b.i.d.): 80.4% | AUC of ear thickness ([1]; study 5, 0.1% topical b.i.d.): 454 | ear thickness on day 11 ([1]; study 5, 0.1% topical b.i.d.): 263.4 ± 6.3 μm | inhibition of AUC of ear thickness ([1]; study 5, 0.1% topical b.i.d.): 70.4%

IC50 (NFκB): 0.45 ng/mL (≈ 1.28 nM)
Molecule: C=C1CC[C@@H]2[C@](C)(CO)[C@H](O)CC[C@@]2(C)[C@@H]1C/C=C1/C(=O)OC[C@H]1O [LGT, Andrographolide]

B1: IL-22: Recombinant mouse IL-22, injected intradermally into ears to induce the psoriasis-like model (protein, UniProt Q9JJY9 34-179, looked up)
Interleukin-22: LPVNTRCKLEVSNFQQPYIVNRTFMLAKEASLADNNTDVRLIGEKLFRGVSAKDQCYLMKQVLNFTLEDVLLPQSDRFQPYMQEVVPFLTKLSNQLSSCHISGDDQNIQKNVRRLKETVKKLGESGEIKAIGELDLLFMSLRNACV
AUC of ear thickness [1, 2]: 590 | ear thickness on day 11 [1, 2]: 248.3 ± 1.9, μm | ear thickness (d15) ([1]; study 1, IL-22 100 ng in 20 μL i.d., d15): 255.3 ± 15.1 μm | AUC of ear thickness [1, 3]: 1055 | ear thickness on day 11 [1, 3]: 311.3 ± 18.0, μm | ear thickness, second value ([1]; study 1, IL-22 500 ng in 20 μL i.d., second value (day not given)): 296.3 ± 5.0 μm
